Source: patent publication US20260166159A1, “KRAS G12D DEGRADATION AGENT, AND PREPARATION METHOD AND USE THEREFOR” (LEADINGTAC PHARMACEUTICAL (SHAOXING) CO., LTD., priority 2022, published 2026)

Experiments:
Format in all cases: cell-based
[1] = target: T1, KRAS-G12D (Homo sapiens, UniProt P01116, G12D); experiment: KRAS-G12D degradation assay (Western Blot), AsPc-1 cells; settings: for DC50: 24 h; for Dmax: ASPC1, 24 h
T1 construct: endogenous in cells; host or cells: A-427 (ATCC), AGS, AsPc-1, Panc 04.03
T1 sequence (P01116 1-188 isoform P01116-2 G12D): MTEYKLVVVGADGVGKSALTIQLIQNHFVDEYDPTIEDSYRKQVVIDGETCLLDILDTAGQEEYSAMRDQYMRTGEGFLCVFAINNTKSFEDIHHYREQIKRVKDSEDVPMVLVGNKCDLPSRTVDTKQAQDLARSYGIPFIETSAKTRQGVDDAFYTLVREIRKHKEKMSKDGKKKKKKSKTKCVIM
In short: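 Each KRAS G12D mutant line (A-427, AGS, AsPc-1, Panc 04.03) was seeded at 5×10^5 cells/well and treated 24 h at 37 °C with 0.03–3000 nM compound (final DMSO 0.25%). KRAS in lysates was measured by Western blot, normalized to β-actin and compared with controls, giving DC50 and Dmax from curve fits.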

[2] = target: T1, KRAS-G12D; experiment: KRAS-G12D degradation assay (Western Blot), AGS cells; settings: 24 h
Protocol: (§1) The degradation effects of the compounds on KRAS-G12D were investigated on KRAS G12D mutant human lung cancer cell A-427 (ATCC), KRAS G12D mutant human gastric cancer cell AGS, KRAS G12D mutant human metastatic pancreatic cancer cell AsPc-1, and KRAS G12D mutant human pancreatic adenocarcinoma cell Panc 04.03. The specific procedures were as follows: 0.95 mL of cells were seeded into each well of a 24-well cell culture plate to achieve a cell density of 5×10^5 cells/well; and the cell plate was incubated in an incubator at 37° C. with 5% CO2 overnight. Then 50 μL of the compound solution after dilution was added to each of the wells with the corresponding cells, so that the final concentration of the compound was in a range of 0.03-3000 nM. The final concentration of DMSO was 0.25%. After the compounds were added, the cell plate was incubated in the incubator at 37° C. with 5% CO2 for 24 h. The culture medium in the 24-well cell culture plate was removed, and the plate was washed twice with 1×PBS (KeyGEN). 120 μL of RIPA (strong) lysis buffer (Beyotime) supplemented with 1 mM phenylmethylsulfonyl fluoride, a protease inhibitor mixture (Beyotime), and a protease phosphatase inhibitor mixture (Beyotime) was added to lyse adherent A-427 cells at the bottom of the cell culture plate. After the plate was left to stand on ice for 30 min, the protein lysate in each well was transferred to a 1.5 mL centrifuge tube and centrifuged at 15000 g for 20 min at 4° C. The cell lysate supernatants after centrifugation were cryopreserved in a refrigerator at −80° C. for later use.
(§2) After the samples of the cell lysate supernatants that had been prepared were thawed from the refrigerator at −80° C., the total protein concentrations of the cell lysates were determined using a BCA protein quantification kit (Tiangen). The total protein concentrations of the samples were then adjusted to 0.5 μg/μL with PBS and 5×SDS-PAGE protein loading buffer (Beyotime), and the samples were incubated in a water bath at 100° C. for 15 min. The samples were then incubated in an ice bath for 5 min and centrifuged at 14000 g for 1 min at 4° C., and the supernatants were mixed well as loading samples for the Western Blot assay. The samples were loaded into wells of a 10% precast gel (KeyGEN) with a loading volume of 10 μL (total protein: 5 μg), a sufficient Tris-MOPS-SDS running buffer (Adamas) was added, and then electrophoresis was performed at a constant voltage of 120 V for 55 min. After the electrophoresis, the proteins on the gel were transferred to PVDF membranes at a constant current of 250 mA for 55 min. After the membrane transfer, the PVDF membranes were incubated in 1× Quick Block blocking buffer (Beyotime) at room temperature for 30 min. After the blocking, the PVDF membranes were separately incubated at 4° C. overnight with the KRAS antibody (Abcam) diluted in a ratio of 1:1000 and the […] antibody (Abcam) diluted in a ratio of 1:2000 in 5% BSA as the diluent, and then washed with 1×TBST buffer (2.4 g of Tris, 8.8 g of NaCl, 1.5 mL of Tween 20, with pH adjusted to 7.4, with the volume brought to 1 L) 3 times for 10 min/time. The membranes were incubated with a secondary antibody (Abcam) diluted in 5% BSA at room temperature for 2 h, and then washed with 1×TBST buffer 3 times for 10 min/time. Finally, the membranes were incubated with Clarity Western ECL Substrate (BIO-RAD) for 5 min for luminescence and color development, and a ChemiScope 6200 Touch chemiluminescence imaging system (Clinx) was used for color development and protein mapping. Gray value analysis of the protein maps was performed using the chemiluminescence analysis software (Clinx). The gray correction value for each sample was calculated using the formula: gray correction value=(gray value of target protein/gray value of corresponding internal reference)×10^3. Then degradation rates were calculated by comparison with the gray correction value of the control group. […]

[3] = target: T1, KRAS-G12D; experiment: KRAS-G12D degradation assay (Western Blot), Panc 04.03 cells; settings: 24 h
Protocol: as §1, §2

[4] = test system: KRAS G12D mutant human metastatic pancreatic cancer cell AsPc-1; experiment: 3D cell proliferation inhibition assay, AsPc-1; settings: ASPC1, 168 h, AsPc-1, 7 days, CTG
In short: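 Cells were seeded at 5×10^2 cells/well in low-adsorption plates with compound (10000–0.026 nM final, 0.2% DMSO) and grown for 7 days at 37 °C, 5% CO2. Viability was read by CTG luminescence after 60 min at room temperature. IC50 came from log concentration–inhibition curve fits, normalised to DMSO and medium-only controls.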

Structure (SMILES) | DC50 [1] [nM] | Dmax [1] [%] | DC50 [2] [nM] | Dmax [2] [%] | DC50 [3] [nM] | Dmax [3] [%] | IC50 ([4]; class symbols) [nM] | IC50 ([4]; numeric values) [nM]
C#Cc1c(F)ccc2cc(O)cc(-c3ncc4c(N5CC6CCC(C5)N6)nc(OCC5(CN6CCN(CC7CCC8(CC7)CCN(C(=O)c7ccc(Cl)c(N9CCC(=O)NC9=O)c7)CC8)CC6)CC5)nc4c3F)c12 [Example 6, 1-(5-(9-((4-((1-(((4-(3,8-diazabicyclo[3.2.1]octan-3-yl)-7-(8-ethynyl-7-fluoro-3-hydroxynaphthalen-1-yl)-8-fluoropyrido[4,3-d]pyrimidin-2-yl)oxy)methyl)cyclopropyl)methyl)piperazin-1-yl)methyl)-3-azaspiro[5.5]undecane-3-carbonyl)-2-chlorophenyl)dihydropyrimidine-2,4(1H,3H)-dione] | 2.9 | 100 | 7.91 | 100 | 21.7 | 99.9 | – | –
C#Cc1cccc2cc(O)cc(-c3ncc4c(N5CC6CCC(C5)N6)nc(OCC5(CN6CCN(CC7CCC8(CC7)CCN(C(=O)c7ccc(Cl)c(N9CCC(=O)NC9=O)c7)CC8)CC6)CC5)nc4c3F)c12 [Example 57, 1-(5-(9-((4-((1-(((4-(3,8-diazabicyclo[3.2.1]octan-3-yl)-7-(8-ethynyl-3-hydroxynaphthalen-1-yl)-8-fluoropyrido[4,3-d]pyrimidin-2-yl)oxy)methyl)cyclopropyl)methyl)piperazin-1-yl)methyl)-3-azaspiro [5.5]undecane-3-carbonyl)-2-chlorophenyl)dihydropyrimidine-2,4(1H,3H)-dione] | 15 | 99.5 | 0.69 | 94.2 | 8.95 | 97.3 | ≤ 50 | –
C#Cc1c(F)ccc2cc(O)cc(-c3ccc4c(N5CC6CCC(C5)N6)nc(OCC5(CN6CCN(CC7CCC8(CC7)CCN(C(=O)c7ccc(C)c(N9CCC(=O)NC9=O)c7)CC8)CC6)CC5)nc4c3F)c12 [Example 42, 1-(5-(9-((4-((1-(((4-(3,8-diazabicyclo[3.2.1]octan-3-yl)-7-(8-ethynyl-7-fluoro-3-hydroxynaphthalen-1-yl)-8-fluoroquinazolin-2-yl)oxy)methyl)cyclopropyl)methyl)piperazin-1-yl)methyl)-3-azaspiro[5.5]undecane-3-carbonyl)-2-methylphenyl)dihydropyrimidine-2,4(1H,3H)-dione] | 0.22 | 100 | 11.8 | 77.4 | 7.46 | 100 | – | 1.75
CCc1cccc2cc(O)cc(-c3ncc4c(N5CC6CCC(C5)N6)nc(OCC5(CN6CCN(CC7CCC8(CC7)CCN(C(=O)c7ccc(OC)c(N9CCC(=O)NC9=O)c7)CC8)CC6)CC5)nc4c3F)c12 [Example 20, 1-(5-(9-((4-((1-(((4-(3,8-diazabicyclo[3.2.1]octan-3-yl)-7-(8-ethyl-3-hydroxynaphthalen-1-yl)-8-fluoropyrido[4,3-d]pyrimidin-2-yl)oxy)methyl)cyclopropyl)methyl)piperazin-1-yl)methyl)-3-azaspiro[5.5]undecane-3-carbonyl)-2-methoxyphenyl)dihydropyrimidine-2,4(1H,3H)-dione] | 0.57 | 100 | 19.9 | 100 | 15.1 | 100 | – | 3.27
CCc1c(F)ccc2cc(O)cc(-c3ncc4c(N5CC6CCC(C5)N6)nc(OCC5(CN6CCN(CC7CCC8(CC7)CCN(C(=O)c7ccc(OC)c(N9CCC(=O)NC9=O)c7)CC8)CC6)CC5)nc4c3F)c12 [Example 15, 1-(5-(9-((4-((1-(((4-(3,8-diazabicyclo[3.2.1]octan-3-yl)-7-(8-ethyl-7-fluoro-3-hydroxynaphthalen-1-yl)-8-fluoropyrido[4,3-d]pyrimidin-2-yl)oxy)methyl)cyclopropyl)methyl)piperazin-1-yl)methyl)-3-azaspiro[5.5]undecane-3-carbonyl)-2-methoxyphenyl)dihydropyrimidine-2,4(1H,3H)-dione] | 13 | 99.3 | 2.17 | 99.6 | 16.6 | 98.9 | ≤ 50 | –
C#Cc1c(F)ccc2cc(O)cc(-c3ncc4c(N5CC6CCC(C5)N6)nc(OCC5(CN6CCN(CCCCC7CCC8(CC7)CCN(C(=O)c7ccc(Cl)c(N9CCC(=O)NC9=O)c7)CC8)CC6)CC5)nc4c3F)c12 [Example 31, 1-(5-(9-(4-(4-((1-(((4-(3,8-diazabicyclo[3.2.1]octan-3-yl)-7-(8-ethynyl-7-fluoro-3-hydroxynaphthalen-1-yl)-8-fluoropyrido[4,3-d]pyrimidin-2-yl)oxy)methyl)cyclopropyl)methyl)piperazin-1-yl)butyl)-3-azaspiro[5.5]undecane-3-carbonyl)-2-chlorophenyl)dihydropyrimidine-2,4(1H,3H)-dione] | – | – | – | – | – | – | – | 5.62
C#Cc1c(F)ccc2cc(O)cc(-c3ncc4c(N5CC6CCC(C5)N6)nc(OCC(C)CN5CCN(CC6CCC7(CC6)CCN(C(=O)c6ccc(OC)c(N8CCC(=O)NC8=O)c6)CC7)CC5)nc4c3F)c12 (stereo not drawn) [Example 84, 1-(5-(9-((4-(3-((4-(3,8-diazabicyclo[3.2.1]octan-3-yl)-7-(8-ethynyl-7-fluoro-3-hydroxynaphthalen-1-yl)-8-fluoropyrido[4,3-d]pyrimidin-2-yl)oxy)-2-methylpropyl)piperazin-1-yl)methyl)-3-azaspiro[5.5]undecane-3-carbonyl)-2-methoxyphenyl)dihydropyrimidine-2,4(1H,3H)-dione] | 0.71 | 99.6 | 3.82 | 92.2 | 1.99 | 98.6 | – | 2.58
